According to patent EP0160258A2, “(6,11-Dihydro-11-oxodibenz(bm,e)oxepinyl)pentanols, a process and intermediates for their preparation and their use as medicaments” (HOECHST-ROUSSEL PHARMACEUTICALS INCORPORATED, priority 1984, dated 1985):
Like-named read-outs stand apart in the source and are kept apart here.

System: adjuvant-induced polyarthritis
Assay: adjuvant-induced polyarthritis syndrome in rats (paw volume)
Type: in vivo
Conditions: Rattus norvegicus, 504 h, dose effecting 50 % inhibition of paw volume, oral, day before adjuvant and continued for 21 days, male Charles River-Wistar Lewis rats
Experimental: The (6,11-dihydro-11-oxodibenz[b,e]oxepinyl)pentanols and derivatives thereof of the present invention are useful as antiarthritic agents due to their ability to specifically suppress arthritis-type inflammation in mammals. […] M. Perrone and F. D. Wood, Arthritis and Rheumatism, 2, 440 (1959).
Groups of 10 male Charles River-Wistar Lewis rats weighing 150 to 175 g were individually housed and maintained on a regular rat chow diet. Water was given ad libitum. The adjuvant was prepared by suspending 75 mg of Mycobacterium butyricum (Difeo Laboratories, Detroit, Michigan) in 10 ml of white paraffin oil with continuous stirring for 2 hrs at room temperature prior to administration. Test compounds are prepared by suspending the drug in water, adding one drop of Tween 80 per 10 ml of suspension, and homogenizing. The adjuvant suspension (0.1 ml) was injected into the footpad of the left hind paw of the rat. Test compound suspensions were administered orally (10 ml/kg) the day before adjuvant suspension injection and the administration was continued for 21 days. One group of ten rats was used for the test drug, standard, adjuvant-injected control and non-injected control. Control animals received vehicle (10 ml/kg). Three doses of test drug and one dose of standard preparation were used. Injected and non-injected paw volumes were determined on the day the adjuvant suspension was given, and in subsequent days thereafter (usually days 5, 10, 18 and 21) by the method of C. A. Wilson, et al., Proc. Soc. Exp. Biol. Med., 111 544 (1962).
The percent inhibition of paw volume (injected and non-injected hind paw) was calculated by the following formula: [formula] ED50-values, i.e., the dose at which the drug effects a 50 % inhibition of paw volume, were estimated by the method of J. T. Litchfield and F. Wilcoxon, J. Pharm. Exp. Thes., 96, 99 (1948), and statistically evaluated by means of the sudent "t" test.

[1] = injected hind paw, read-out: ED50 (injected)
[2] = non-injected hind paw, read-out: ED50 (non-injected)

## CCCCC1C(=O)N(c2ccccc2)N(c2ccccc2)C1=O [phenylbutazone]
[1]
  ED50: 12 mg/kg
[2]
  ED50: 6.8 mg/kg

## CC(CCCO)c1ccc2c(c1)C(=O)c1ccccc1CO2 (stereo not shown) [4-(6,11-Dihydro-11-oxodibenz[b,e]oxepin-2-yl)pentanol]
[1]
  ED50: 5.6 mg/kg
[2]
  ED50: 3.9 mg/kg
